SMILES strings stand for the structures.

Holding throughout (type): cell-based, Staphylococcus aureus
One assay deals with MRSA-596. The assay is described as follows: paper diffusion drug sensitivity test, MRSA-596. As to conditions: for Zone of inhibition: MRSA-596, drug sensitive paper 30 μg/tablet, LB plate, 37° C., 24 h; for inhibitory effect (in words): multi-drug resistant Staphylococcus aureus 596, summary of FIGS. 1-3 and Table 1. As to the method: (§1) The antimicrobial efficacy was determined by a paper diffusion drug sensitivity test.
(§2) Experimental strains: multi-resistant Staphylococcus aureus 206, multi-resistant Staphylococcus aureus 575, multi-resistant Staphylococcus aureus 596. The experimental strains were provided by Huashan Hospital Affiliated to Fudan University (Institute of Antibiotic of Fudan University).
(§3) Drug sensitive paper: The drug sensitive paper was a special drug sensitive paper with a diameter of 6.35 mm and a water absorption of 0.02 mL. The control drug was vancomycin (30 μg/tablet); the test drugs were pleuromulin (30 μg/tablet), ursodeoxycholic acid (30 μg/tablet) and pleuromulin ursodeoxycholic acid ester (30 μg/tablet).
(§4) The experimental strains were inoculated in non-selective medium and placed in air at 37° C. for 24 h. Pick a single colony that grows well and inoculate it into broth medium, incubate at 35° C.±2° C. for 6 hours, and use LA broth medium to calibrate the concentration of the bacterial solution to 0.5 Mie turbidimetric tube (1.5×10^8 CFU/mL). A bacterial suspension is obtained.
(§5) Weigh the LB dry powder, sterilize at 103.4 Kpa, 121.3° C. high-pressure steam for 15 min, and then put it in a 40° C.-50° C. water bath. Place a sterile empty plate (inner diameter 9 cm) on the surface of the ultra-clean table water table, shake and shake LB, and then pour the plate. The thickness of each plate is 3 mm to 4 mm. After the plate is cooled at room temperature, store it in the refrigerator at 2° C.-8° C. Use a sterile cotton swab to dip the bacterial solution, and evenly coat the surface of the LB plate 3 times. After inoculation of the bacterial suspension, the LB plate was dried at room temperature for 3 min to 5 min. Use sterile forceps to closely attach the antibacterial drug paper to the dish. Put the dish upside down and place it in a 37° C. incubator for 24 h. Observe the result and measure the diameter. Taking 0.5% DMSO solution as a negative control, the antibacterial activity is expressed by the diameter of the inhibition zone. The inhibition zone ≥17 mm, sensitive; the inhibition zone is 15 mm˜16 mm, intermediary; the inhibition zone ≤14 mm, drug resistance.

Another assay concerns MRSA-575. Put plainly: paper diffusion drug sensitivity test, MRSA-575. As to conditions: for Zone of inhibition: MRSA-575, drug sensitive paper 30 μg/tablet, LB plate, 37° C., 24 h; for inhibitory effect (in words): multi-drug resistant Staphylococcus aureus 575, summary of FIGS. 1-3 and Table 1. On the procedure:
as §1, §2, §3, §4, §5

For the next assay, the system named is MRSA-171. Put plainly: paper diffusion drug sensitivity test, MRSA-171. As to conditions: for Zone of inhibition: MRSA-171, drug sensitive paper 30 μg/tablet, LB plate, 37° C., 24 h; for inhibitory effect (in words): multi-drug resistant Staphylococcus aureus 171, summary of FIGS. 1-3 and Table 1. As to the method: [Worded in the source for another organism; this organism is reported under the same test.] as §1, §2, §3, §4, §5

For `C=C[C@]1(C)C[C@@H](OC(=O)CO)[C@]2(C)[C@H](C)CC[C@]3(CCC(=O)[C@H]32)[C@@H](C)[C@@H]1O` [Pleuromulin], the Zone of inhibition in the assay on MRSA-596, with MRSA-575 and in the assay with MRSA-171 was 0 mm each time. Also, the “inhibitory effect (in words)” value with MRSA-596, in the assay with MRSA-575 and in the assay with MRSA-171 was “no inhibitory effect” in each case.
As to `C[C@H](CCC(=O)O)[C@H]1CC[C@H]2[C@@H]3[C@@H](O)C[C@@H]4C[C@H](O)CC[C@]4(C)[C@H]3CC[C@]12C` [Ursodeoxycholic acid], the Zone of inhibition in the assay with MRSA-596, in the assay on MRSA-575 and in the assay on MRSA-171 was 0 mm each time. Further, the “inhibitory effect (in words)” value in the assay on MRSA-596, in the assay with MRSA-575 and in the assay with MRSA-171 was “no inhibitory effect” each time.
As to `C=C[C@]1(C)C[C@@H](OC(=O)COC(=O)CC[C@@H](C)[C@H]2CCC3[C@@H]4[C@@H](O)C[C@@H]5C[C@H](O)CC[C@]5(C)[C@H]4CC[C@@]32C)[C@]2(C)CC[C@@H](C)[C@@]3(CCC(=O)[C@@H]23)[C@@H](C)[C@@H]1O` (stereo partly drawn) [Pleuromulin ursodeoxycholic acid ester, (4R)-2-(((3aS,4R,5S,6S,8R,9R,9aR,12R)-5-hydroxy-4,6,9,12-tetramethyl-1-oxo-6-vinyldecahydro-3a,9-propanocyclopenta[8]annulen-8-yl)oxy)-2-oxoethyl 4-((3R,5 S,7 S, 8R,9 S, 10 S,13R,17R)-3,7-dihydroxy-10,13-dimethylhexadecahydro-1H-cyclopenta[a]phenanthren-17-yl)pentanoate], the Zone of inhibition in the assay with MRSA-596 is listed as 12 mm; with MRSA-575 it was 13 mm; in the assay with MRSA-575 (listed as pleuromutilin ursodeoxycholic acid ester), “up to 13 mm”; in the assay on MRSA-171, 11 mm. The “inhibitory effect (in words)” value in the assay with MRSA-596, with MRSA-575 and with MRSA-171 was “strong inhibitory effects” throughout.
Turning to `CN[C@H](CC(C)C)C(=O)N[C@H]1C(=O)N[C@@H](CC(N)=O)C(=O)N[C@H]2C(=O)N[C@H]3C(=O)N[C@H](C(=O)N[C@H](C(=O)O)c4cc(O)cc(O)c4-c4cc3ccc4O)[C@H](O)c3ccc(c(Cl)c3)Oc3cc2cc(c3O[C@@H]2O[C@H](CO)[C@@H](O)[C@H](O)[C@H]2O[C@H]2C[C@](C)(N)[C@H](O)[C@H](C)O2)Oc2ccc(cc2Cl)[C@H]1O` [Vancomycin], the Zone of inhibition with MRSA-596 turned out to be 23 mm; in the assay with MRSA-575 it was 17 mm; with MRSA-171 it was 17 mm.

The values above are taken from patent publication US11186607B1, “Pleuromutilin ursodeoxycholic acid ester with antibacterial activity and a method of preparing the same” (Xi'an Taikomed Pharmaceutical Technology Co., Ltd., priority 2020, dated 2021).
